Data set [1] is described as follows: Solubilities in solvent media (PEG 400, transcutol, methanol). The format is physicochemical. The text has this: The solubilities (in milligrams per milliliter, mg/mL) of the Form A compound in polyethylene glycol 400, transcutol and methanol solvents are as follows:
The solubilities (in milligrams per milliliter, mg/mL) of Form B in polyethylene glycol 400, transcutol and methanol solvents are as follows: […]

A short description of data set [2]: Crystallization determinations, solubility comments (Table IV). The format is physicochemical. Particulars: for Solubility (Comments): evaporation at 25° C. On the procedure:
Recrystallization procedures for the respective forms were carried out in each case with the compound being dissolved in the selected solvent and stored at ambient temperature (e.g., 25° C.) until the solvent evaporated. The solid residue was then analyzed by x-ray diffraction.
In the respective anti-solvent determinations, the compound was dissolved in a selected solvent at 25° C., and water or alcohol was added to precipitate a solid. The solid was analyzed by x-ray diffraction.
The compound 4-(((7-oxo-6,7-dihydro-8H-[1,3]thiazolo[5,4-e]indol-8-ylidene)-methyl)amino)-N-(4-pyridinylmethyl) benzenesulfonamide was subjected to crystallization determinations using various solvents and methods of crystallization as described in Table IV below.
In the case of solvent that are relatively non-volatile (DMSO, DMF), complete evaporation was difficult to achieve at […] The presence of solvent was evident as an amorphous hump in the PXRD pattern. Cooling at 5° C. was less successful than the other crystallization approaches as a consequence of the low solubility of 4-(((7 oxo-6,7-dihydro-8H [1,3]thiazolo[5,4-e]indol-8-ylidene)methyl)amino)-N-(4-pyridinylmethyl) benzenesulfonamide under such conditions.

Here are results for two compounds from patent US6492398B1, “Thiazoloindolinone compounds” (SmithKline Beechman Corporation, priority 1999, dated 2002).

Converted amounts (≈) assume the structure as drawn.

One may read the Solubility as how much of the substance goes into solution per volume. As to `O=C1Nc2ccc3ncsc3c2C1=CNc1ccc(S(=O)(=O)NCc2ccncc2)cc1` [Form A, 4-{[(7-oxo-6,7-dihydro8H-[1,3]thiazolo[5,4-e]indol-8-ylidene)methyl]amino}-N-(4-pyridinylmethyl)-benzenesulfonamide], the Solubility in data set [1] (polyethylene glycol 400, organic solvent or mixture, solvent PEG 400 (polyethylene glycol 400), read-out: Solubility) is 4760 µg/mL (≈ 10.3 mM); in data set [1] (solvent methanol), 300 µg/mL (≈ 0.647 mM); in data set [1] (transcutol, organic solvent or mixture, solvent transcutol, read-out: Solubility), 3150 µg/mL (≈ 6.8 mM); in data set [2] (organic solvent or mixture, solvent ethyl acetate, cooling at 5° C.) it was less than 60 µg/mL. Further, in data set [2] (solvent pyridine), the “Solubility (Comments)” value is on record as “low”.
Take `O=C1Nc2ccc3ncsc3c2C1=CNc1ccc(S(=O)(=O)NCc2ccncc2)cc1` [Form B, 4-{[(7-oxo-6,7-dihydro-8H-[1,3]thiazolo[5,4-e]indol-8-ylidene)methyl]amino}-N-(4-pyridinylmethyl)-benzenesulfonamide]: the Solubility in data set [1] (solvent PEG 400 (polyethylene glycol 400)) turned out to be 4500 µg/mL (≈ 9.71 mM); in data set [1] (solvent methanol) it was 80 µg/mL (≈ 0.173 mM); in data set [1] (solvent transcutol) it was 2770 µg/mL (≈ 5.98 mM). Besides, the “Solubility (Comments)” value in data set [2] (solvent ethyl acetate) was “low”.
